From ChEMBL document CHEMBL1152794, “Synthesis and biological evaluation of a small molecule library of 3rd generation multidrug resistance modulators” (Bioorg Med Chem, 2009)

Biological target: ATP-dependent translocase ABCB1 (Homo sapiens, UniProt P08183)
Test: Inhibition of P-glycoprotein-mediated multidrug resistance in adriamycin-resistant human A2780/ADR cells by calcein AM assay
Assay type: cell-based

Chain of ATP-dependent translocase ABCB1 (P08183 whole entry): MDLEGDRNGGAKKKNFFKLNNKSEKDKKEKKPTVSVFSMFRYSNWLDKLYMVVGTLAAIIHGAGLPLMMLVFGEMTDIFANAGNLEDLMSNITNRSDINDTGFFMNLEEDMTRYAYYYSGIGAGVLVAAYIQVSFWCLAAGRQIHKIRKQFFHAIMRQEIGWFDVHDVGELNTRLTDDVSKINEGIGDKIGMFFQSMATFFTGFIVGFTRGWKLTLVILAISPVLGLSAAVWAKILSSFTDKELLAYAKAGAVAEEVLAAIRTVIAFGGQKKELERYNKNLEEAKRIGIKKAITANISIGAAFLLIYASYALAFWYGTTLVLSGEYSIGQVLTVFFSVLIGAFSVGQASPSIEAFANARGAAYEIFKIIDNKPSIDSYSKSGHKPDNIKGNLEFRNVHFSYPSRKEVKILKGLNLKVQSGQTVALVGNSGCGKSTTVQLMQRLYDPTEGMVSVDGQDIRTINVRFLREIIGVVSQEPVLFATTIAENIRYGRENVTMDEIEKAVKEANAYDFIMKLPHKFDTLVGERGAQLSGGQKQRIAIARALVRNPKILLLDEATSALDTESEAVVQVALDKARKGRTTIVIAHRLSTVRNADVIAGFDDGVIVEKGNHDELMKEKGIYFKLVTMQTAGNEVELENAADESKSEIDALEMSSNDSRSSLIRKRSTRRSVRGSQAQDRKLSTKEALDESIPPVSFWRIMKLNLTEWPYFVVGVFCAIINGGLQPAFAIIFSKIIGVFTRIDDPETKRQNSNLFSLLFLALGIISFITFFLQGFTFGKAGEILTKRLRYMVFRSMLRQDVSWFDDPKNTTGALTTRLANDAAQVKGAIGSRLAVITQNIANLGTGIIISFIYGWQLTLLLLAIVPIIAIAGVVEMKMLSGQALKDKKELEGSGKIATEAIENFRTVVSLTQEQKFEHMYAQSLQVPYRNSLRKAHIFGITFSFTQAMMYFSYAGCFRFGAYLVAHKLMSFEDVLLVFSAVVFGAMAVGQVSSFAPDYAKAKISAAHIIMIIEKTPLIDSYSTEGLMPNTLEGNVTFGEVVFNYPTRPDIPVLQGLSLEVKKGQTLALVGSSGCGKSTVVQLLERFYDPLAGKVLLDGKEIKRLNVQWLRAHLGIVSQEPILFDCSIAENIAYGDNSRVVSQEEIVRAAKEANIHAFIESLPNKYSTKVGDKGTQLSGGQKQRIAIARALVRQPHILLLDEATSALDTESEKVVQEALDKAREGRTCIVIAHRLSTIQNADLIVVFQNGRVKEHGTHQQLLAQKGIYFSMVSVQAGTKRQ

Compound	IC50 [µM]
O=C(Nc1ccc(CCN2CCc3ccccc3C2)cc1)c1ccccc1[N+](=O)[O-]	14
COc1cc2c(cc1OC)CN(CCc1ccc(NC(=O)c3ccnc4ccccc34)cc1)CC2	4.7
COc1cc2c(cc1OC)CN(CCc1ccc(NC(=O)c3cnc4ccccc4n3)cc1)CC2	0.47
COc1cc2c(cc1OC)CN(CCc1ccc(NC(=O)c3cnc4ccccc4c3)cc1)CC2	0.57
COc1cc2c(cc1OC)CN(CCc1ccc(NC(=O)c3cccc(Br)c3)cc1)CC2	1.8
COc1cc2c(cc1OC)CN(CCc1ccc(NC(=O)c3ccc4ccccc4c3)cc1)CC2	0.63
O=C(Nc1ccc(CCN2CCc3ccccc3C2)cc1)c1ccc([N+](=O)[O-])cc1	5.6
COc1cc2c(cc1OC)CN(CCc1ccc(NC(=O)c3ccc(N)cc3)cc1)CC2	4.4
COc1cc2c(cc1OC)CN(CCc1ccc(NC(=O)c3cc(OC)c(OC)cc3NC(=O)c3cnc4ccccc4c3)cc1)CC2	0.078
COc1cc2c(cc1OC)CN(CCc1ccc(NC(=O)c3ccccc3Br)cc1)CC2	3.3
COc1cc2c(cc1OC)CN(CCc1ccc(NC(=O)c3ccc4ncccc4c3)cc1)CC2	0.65
COc1cc2c(cc1OC)CN(CCc1ccc(NC(=O)c3cccnc3)cc1)CC2	4.8
Nc1ccc(C(=O)Nc2ccc(CCN3CCc4ccccc4C3)cc2)cc1	12
COc1cc2c(cc1OC)CN(CCc1ccc(NC(=O)c3ccccc3N)cc1)CC2	8.5
COc1cc2c(cc1OC)CN(CCc1ccc(NC(=O)c3ccccc3[N+](=O)[O-])cc1)CC2	5.4
COc1cc2c(cc1OC)CN(CCc1ccc(NC(=O)c3ccccc3)cc1)CC2	4.1
COc1cc(/C=C/C(=O)Nc2ccc(CCN3CCc4cc(OC)c(OC)cc4C3)cc2)c([N+](=O)[O-])cc1OC	1.5

Compound	IC50 [µM]
COc1cc2c(cc1OC)CN(CCc1ccc(NC(=O)c3ccc4ccccc4n3)cc1)CC2	0.85
COc1cc2c(cc1OC)CN(CCc1ccc(NC(=O)Nc3ccccc3N)cc1)CC2	21
Nc1ccccc1NC(=O)Nc1ccc(CCN2CCc3ccccc3C2)cc1	19
COc1cc2c(cc1OC)CN(CCc1ccc(NC(=O)COc3ccccc3N)cc1)CC2	3.4
COc1cc2c(cc1OC)CN(CCc1ccc(NC(=O)/C=C/c3ccc(Cl)cc3)cc1)CC2	0.67
COc1cc2c(cc1OC)CN(CCc1ccc(NC(=O)COc3ccccc3)cc1)CC2	3.1
COc1cc2c(cc1OC)CN(CCc1ccc(NC(=O)/C=C/c3ccccc3[N+](=O)[O-])cc1)CC2	1.1
COc1cc2c(cc1OC)CN(CCc1ccc(NC(=O)c3ccc4c(c3)OCO4)cc1)CC2	2.1
COc1cc2c(cc1OC)CN(CCc1ccc(NC(=O)Nc3cccc(N)c3)cc1)CC2	14
COc1cc2c(cc1OC)CN(CCc1ccc(NC(=O)Nc3ccc(N)cc3)cc1)CC2	31
COc1cc2c(cc1OC)CN(CCc1ccc(NC(=O)Nc3ccc([N+](=O)[O-])cc3)cc1)CC2	1.5
COc1cc2c(cc1OC)CN(CCc1ccc(NC(=O)Nc3ccccc3[N+](=O)[O-])cc1)CC2	0.33
O=C(Nc1ccc(CCN2CCc3ccccc3C2)cc1)Nc1ccccc1[N+](=O)[O-]	0.77
COc1cc2c(cc1OC)CN(CCc1ccc(NC(=O)COc3ccccc3[N+](=O)[O-])cc1)CC2	0.22
COc1cc2c(cc1OC)CN(CCc1ccc(NC(=O)Nc3cccc([N+](=O)[O-])c3)cc1)CC2	0.67
COc1cc2c(cc1OC)CN(CCc1ccc(NC(=O)/C=C/c3ccccc3)cc1)CC2	1.4
COc1cc2c(cc1OC)CN(CCc1ccc(NC(=O)c3ccc([N+](=O)[O-])cc3)cc1)CC2	1.4
